Measurements as given in patent publication US8889711B2, “Pyrazolopyridine derivatives as anticancer agent” (Pierre Fabre Medicament, priority 2009, dated 2014).

Target: ALK kinase (Homo sapiens, UniProt Q9UM73)
Assay: Test to measure ALK kinase inhibition (GST-PLCγ1 substrate, anti-phosphotyrosine ELISA, luminescence)
Type: biochemical
Settings: ALK kinase 180 ng/ml, 250 μM ATP, 30 minutes at 30° C.
Experimental: Test to Measure ALK Kinase Inhibition
A ViewPlate (Packard) is incubated with the GST-PLCγ1 substrate (purified recombinant form) at 0.1 mg/ml in phosphate buffer (PBS pH 7.4)(100 μl/well) for one hour under shaking. The plate is then saturated with a blocking solution containing 5% bovine serum albumin (BSA) (SIGMA) in PBS buffer pH 7.4.
After adding the inhibitor at the desired final concentration (usual range of 30 μM to 10 nM), the reaction is conducted by adding the ALK kinase at 180 ng/ml in 13 mM Tris reaction buffer pH 7.5 (SIGMA); 6.5 mM MgCl2 (MERCK); 0.65 mM DiThioThreitol (DTT) (ACROS); 39 mM sodium β-glycerophosphate (TCI); 0.65 mM sodium orthovanadate (SIGMA) and 250 μM ATP (SIGMA). Incubation is carried out for 30 minutes at 30° C. under shaking.
After three washings under shaking in 0.1% PBS/Tween-20 buffer (SIGMA), an anti-phosphotyrosine antibody coupled with HRP (UBI) diluted to 1/1000th in PBS/BSA buffer 5 mg/ml, is incubated for one hour under shaking. After three further washings in 0.1% PBS/Tween-20, the wells are incubated two minutes with 100 μl of SuperSignal ELISA mixture (PIERCE).
The signal is read in luminescent mode using a luminometer (MOLECULAR DEVICES SpectraMax M5e).

ALK kinase, sequence (Q9UM73 19-1620): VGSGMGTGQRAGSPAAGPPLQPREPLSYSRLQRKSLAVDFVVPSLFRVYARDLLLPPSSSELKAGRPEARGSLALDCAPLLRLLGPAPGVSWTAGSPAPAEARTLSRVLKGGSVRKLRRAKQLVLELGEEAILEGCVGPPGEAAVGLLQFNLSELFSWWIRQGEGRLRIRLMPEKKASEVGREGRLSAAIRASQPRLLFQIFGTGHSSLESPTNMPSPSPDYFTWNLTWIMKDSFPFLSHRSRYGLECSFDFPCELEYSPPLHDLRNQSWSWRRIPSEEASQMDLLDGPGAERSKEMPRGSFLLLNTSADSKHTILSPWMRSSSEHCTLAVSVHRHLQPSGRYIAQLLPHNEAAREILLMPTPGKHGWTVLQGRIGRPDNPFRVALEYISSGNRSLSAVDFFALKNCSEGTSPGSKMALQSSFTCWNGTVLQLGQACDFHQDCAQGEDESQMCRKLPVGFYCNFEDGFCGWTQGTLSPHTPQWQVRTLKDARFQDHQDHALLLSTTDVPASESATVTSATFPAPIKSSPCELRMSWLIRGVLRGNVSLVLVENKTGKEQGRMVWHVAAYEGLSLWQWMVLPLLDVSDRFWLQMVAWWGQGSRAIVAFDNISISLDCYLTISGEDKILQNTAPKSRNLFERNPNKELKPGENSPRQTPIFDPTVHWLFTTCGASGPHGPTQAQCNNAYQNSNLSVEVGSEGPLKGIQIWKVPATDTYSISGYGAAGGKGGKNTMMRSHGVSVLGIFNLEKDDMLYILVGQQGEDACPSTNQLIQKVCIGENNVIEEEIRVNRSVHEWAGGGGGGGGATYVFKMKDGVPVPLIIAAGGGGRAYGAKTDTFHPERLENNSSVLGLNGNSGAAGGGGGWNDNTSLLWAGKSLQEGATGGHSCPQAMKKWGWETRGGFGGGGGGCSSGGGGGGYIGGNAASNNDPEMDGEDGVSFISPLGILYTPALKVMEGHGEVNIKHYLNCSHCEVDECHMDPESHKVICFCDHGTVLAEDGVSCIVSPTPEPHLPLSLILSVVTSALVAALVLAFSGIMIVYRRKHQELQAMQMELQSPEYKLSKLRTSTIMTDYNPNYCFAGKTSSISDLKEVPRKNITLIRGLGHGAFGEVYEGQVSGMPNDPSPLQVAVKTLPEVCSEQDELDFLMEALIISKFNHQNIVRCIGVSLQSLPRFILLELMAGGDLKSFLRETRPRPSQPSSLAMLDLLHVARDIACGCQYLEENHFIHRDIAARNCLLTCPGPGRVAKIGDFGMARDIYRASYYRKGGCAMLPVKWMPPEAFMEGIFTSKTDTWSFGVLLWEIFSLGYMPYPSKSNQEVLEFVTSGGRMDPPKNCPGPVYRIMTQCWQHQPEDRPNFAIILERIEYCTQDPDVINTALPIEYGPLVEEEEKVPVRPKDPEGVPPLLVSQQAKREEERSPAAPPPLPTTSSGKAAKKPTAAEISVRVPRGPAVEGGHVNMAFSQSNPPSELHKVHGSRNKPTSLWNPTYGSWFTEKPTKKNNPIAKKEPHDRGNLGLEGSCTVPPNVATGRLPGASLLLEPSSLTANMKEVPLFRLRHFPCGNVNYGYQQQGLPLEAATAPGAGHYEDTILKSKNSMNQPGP

| Structure (SMILES) | IC50 [nM] |
| --- | --- |
| Cc1n[nH]c2nc(-c3ccc(O)cc3F)c(C#N)c(-c3ccc(N4CC[C@H](N)C4)o3)c12 [Compound 134] | < 100 |
| Cc1n[nH]c2nc(-c3ccc(O)cc3F)c(C#N)c(-c3ccc([N+](=O)[O-])cc3)c12 [Compound 143] | 1000 to 10000 |
| Cc1n[nH]c2nc(-c3ccc(O)cc3F)c(C#N)c(C3C[C@@H]3C(=O)N3CC[C@@H](N)C3)c12 (some centres unmarked) [Compound 147] | 1000 to 10000 |
| Cc1n[nH]c2nc(-c3ccc(O)cc3F)c(C#N)c(-c3ccc(N4CCC(O)CC4)o3)c12 [Compound 153] | < 100 |
| Cc1n[nH]c2nc(-c3c(F)cc(O)cc3F)c(C#N)c(-c3ccc(N4CCNCC4)cc3)c12 [Compound 154] | < 100 |
| Cc1n[nH]c2nc(-c3c(F)cc(O)cc3F)c(C#N)c(-c3ccc(N4CC[C@@H](N)C4)o3)c12 [Compound 155] | < 100 |
| Cc1n[nH]c2nc(-c3ccc(O)cc3F)c(C#N)c(-c3ccc(N4CC[C@@H](O)C4)o3)c12 [Compound 156] | < 100 |
| Cc1n[nH]c2nc(-c3ccc([N+](=O)[O-])cc3F)c(C#N)c(-c3ccc(N4CCNCC4)cc3)c12 [Compound 158] | 1000 to 10000 |
| Cc1n[nH]c2nc(-c3ccc(N)cc3F)c(C#N)c(-c3ccc(N4CCNCC4)cc3)c12 [Compound 160] | 1000 to 10000 |
| Cc1n[nH]c2nc(-c3c(F)ccc(F)c3F)c(C#N)c(-c3ccc(N4CCNCC4)cc3)c12 [Compound 161] | 100 to 1000 |
| Cc1n[nH]c2nc(-c3ccc(O)cc3F)c(C#N)c(-c3ccc(N4CCC(CN)C4)o3)c12 (centres unmarked) [Compound 163] | < 100 |
| N#Cc1c(-c2ccc(O)cc2F)nc2[nH]nc(N)c2c1-c1ccc(N2CC3CNCC3C2)o1 (centres unmarked) [Compound 164] | 100 to 1000 |

Results, then the compound that gave them:

| IC50 [nM] | Structure (SMILES) |
| --- | --- |
| < 100 | CCN(CC)CCSc1ccc(-c2c(C#N)c(-c3ccc(O)cc3F)nc3[nH]nc(C)c23)o1 [Compound 132] |
| < 100 | Cc1n[nH]c2nc(-c3ccc(O)cc3F)c(C#N)c(-c3ccc(N4CCC(N)CC4)o3)c12 [Compound 133] |
| 100 to 1000 | Cc1n[nH]c2nc(-c3ccc(O)cc3F)c(C#N)c(C(=O)NN3CCN(C)CC3)c12 [Compound 135] |
| 1000 to 10000 | Cc1n[nH]c2nc(-c3ccc(O)cc3F)c(C#N)c(C(=O)NCCN3CCOCC3)c12 [Compound 136] |
| 100 to 1000 | Cc1n[nH]c2nc(-c3ccc(O)cc3F)c(C#N)c(-c3ccc(S(=O)(=O)O)o3)c12 [Compound 137] |
| 100 to 1000 | Cc1n[nH]c2nc(-c3ccc(O)cc3F)c(C#N)c(C3C[C@@H]3C(=O)NCC3CCNCC3)c12 (some centres unmarked) [Compound 138] |
| < 100 | Cc1n[nH]c2nc(-c3ccc(O)cc3F)c(C#N)c(-c3ccc(N4CCC(N5CCN(C)CC5)CC4)o3)c12 [Compound 142] |
| 100 to 1000 | Cc1n[nH]c2nc(-c3ccc(O)cc3F)c(C#N)c(C3C[C@@H]3C(=O)N3CCNCC3)c12 (some centres unmarked) [Compound 146] |
| 1000 to 10000 | Cc1n[nH]c2nc(-c3ccc(O)cc3F)c(C#N)c(-c3ccc(C#N)cc3)c12 [Compound 148] |
| 100 to 1000 | Cc1n[nH]c2nc(-c3ccc(O)cc3F)c(C#N)c(-c3cnc(N)s3)c12 [Compound 150] |
| 100 to 1000 | Cc1n[nH]c2nc(-c3ccc(O)cc3F)c(C#N)c(-c3csc(C4CCNCC4)n3)c12 [Compound 152] |
| < 100 | Cc1n[nH]c2nc(-c3ccc(O)cc3F)c(C#N)c(-c3ccc(N4CCC(N(C)C)C4)o3)c12 (centres unmarked) [Compound 159] |
| < 100 | Cc1n[nH]c2nc(-c3ccc(O)cc3F)c(C#N)c(-c3ccc(N4CCC(N5CCCC5)CC4)o3)c12 [Compound 162] |

Tested on: karpas 299 cells
Assay: Measurement of inhibition of cell proliferation (Karpas), ATPlite
Type: cell-based
Settings: 72 hours
Experimental: Measurement of Inhibition of Cell Proliferation (Karpas):
The antiproliferative activities of the compounds were measured using the ATPlite technique (Perkin Elmer).
The non-adhering cells (karpas 299) are seeded in 96-well plates (300 000 cells/ml) on Day 1 at a concentration compatible with logarithmic growth for 72 hours required for evaluation of the compounds. All the cells are treated on Day 1, then placed in an incubator at 37° C. under 5% CO2 atmosphere. Cell viability is evaluated on Day 4 by assay of released ATP, characteristic of viable cells. The IC50 values are determined by non-linear regression on the basis of a sigmoid model of dose/response relationship, Hill's slope coefficient being left variable, performed using GraphPad software sequence with the supplied algorithm.

| IC50 [nM] | Structure (SMILES) |
| --- | --- |
| > 10000 | Cc1n[nH]c2nc(-c3ccc(O)cc3F)c(C#N)c(-c3ccc(N4CCC(N5CCN(C)CC5)CC4)o3)c12 [Compound 142] |
| > 10000 | Cc1n[nH]c2nc(-c3ccc(O)cc3F)c(C#N)c(-c3csc(C4CCNCC4)n3)c12 [Compound 152] |

Same assay, conditions: Homo sapiens, KARPAS-299, 72 h

| Structure (SMILES) | IC50 [nM] |
| --- | --- |
| Cc1n[nH]c2nc(-c3ccc(O)cc3F)c(C#N)c(-c3ccc(N4CC[C@H](N)C4)o3)c12 [Compound 134] | 1000 to 10000 |
| Cc1n[nH]c2nc(-c3ccc(O)cc3F)c(C#N)c(-c3ccc([N+](=O)[O-])cc3)c12 [Compound 143] | > 10000 |
| Cc1n[nH]c2nc(-c3ccc(O)cc3F)c(C#N)c(C3C[C@@H]3C(=O)N3CC[C@@H](N)C3)c12 (some centres unmarked) [Compound 147] | > 10000 |
| Cc1n[nH]c2nc(-c3ccc(O)cc3F)c(C#N)c(-c3ccc(N4CCC(O)CC4)o3)c12 [Compound 153] | 1000 to 10000 |
| Cc1n[nH]c2nc(-c3c(F)cc(O)cc3F)c(C#N)c(-c3ccc(N4CCNCC4)cc3)c12 [Compound 154] | 100 to 1000 |
| Cc1n[nH]c2nc(-c3c(F)cc(O)cc3F)c(C#N)c(-c3ccc(N4CC[C@@H](N)C4)o3)c12 [Compound 155] | 1000 to 10000 |
| Cc1n[nH]c2nc(-c3ccc(O)cc3F)c(C#N)c(-c3ccc(N4CC[C@@H](O)C4)o3)c12 [Compound 156] | 100 to 1000 |
| Cc1n[nH]c2nc(-c3ccc([N+](=O)[O-])cc3F)c(C#N)c(-c3ccc(N4CCNCC4)cc3)c12 [Compound 158] | > 10000 |
| Cc1n[nH]c2nc(-c3ccc(N)cc3F)c(C#N)c(-c3ccc(N4CCNCC4)cc3)c12 [Compound 160] | > 10000 |
| Cc1n[nH]c2nc(-c3c(F)ccc(F)c3F)c(C#N)c(-c3ccc(N4CCNCC4)cc3)c12 [Compound 161] | > 10000 |
| Cc1n[nH]c2nc(-c3ccc(O)cc3F)c(C#N)c(-c3ccc(N4CCC(CN)C4)o3)c12 (centres unmarked) [Compound 163] | 1000 to 10000 |
| N#Cc1c(-c2ccc(O)cc2F)nc2[nH]nc(N)c2c1-c1ccc(N2CC3CNCC3C2)o1 (centres unmarked) [Compound 164] | > 10000 |

Continued, values first:

| IC50 [nM] | Structure (SMILES) |
| --- | --- |
| > 10000 | CCN(CC)CCSc1ccc(-c2c(C#N)c(-c3ccc(O)cc3F)nc3[nH]nc(C)c23)o1 [Compound 132] |
| 100 to 1000 | Cc1n[nH]c2nc(-c3ccc(O)cc3F)c(C#N)c(-c3ccc(N4CCC(N)CC4)o3)c12 [Compound 133] |
| > 10000 | Cc1n[nH]c2nc(-c3ccc(O)cc3F)c(C#N)c(C(=O)NN3CCN(C)CC3)c12 [Compound 135] |
| > 10000 | Cc1n[nH]c2nc(-c3ccc(O)cc3F)c(C#N)c(C(=O)NCCN3CCOCC3)c12 [Compound 136] |
| > 10000 | Cc1n[nH]c2nc(-c3ccc(O)cc3F)c(C#N)c(-c3ccc(S(=O)(=O)O)o3)c12 [Compound 137] |
| > 10000 | Cc1n[nH]c2nc(-c3ccc(O)cc3F)c(C#N)c(C3C[C@@H]3C(=O)NCC3CCNCC3)c12 (some centres unmarked) [Compound 138] |
| > 10000 | Cc1n[nH]c2nc(-c3ccc(O)cc3F)c(C#N)c(C3C[C@@H]3C(=O)N3CCNCC3)c12 (some centres unmarked) [Compound 146] |
| 1000 to 10000 | Cc1n[nH]c2nc(-c3ccc(O)cc3F)c(C#N)c(-c3ccc(C#N)cc3)c12 [Compound 148] |
| > 10000 | Cc1n[nH]c2nc(-c3ccc(O)cc3F)c(C#N)c(-c3cnc(N)s3)c12 [Compound 150] |
| 100 to 1000 | Cc1n[nH]c2nc(-c3ccc(O)cc3F)c(C#N)c(-c3ccc(N4CCC(N(C)C)C4)o3)c12 (centres unmarked) [Compound 159] |
| 100 to 1000 | Cc1n[nH]c2nc(-c3ccc(O)cc3F)c(C#N)c(-c3ccc(N4CCC(N5CCCC5)CC4)o3)c12 [Compound 162] |
